According to the NIST ThermoML archive (doi:10.1016/j.jct.2019.07.008):
Numbers after ± are expanded uncertainties.

Details: Liquid, Ebulliometric method (Recirculating still)

vapor or sublimation pressure (355.2 K) | vapor or sublimation pressure (372.8 K) | SMILES
100 ± 2 kPa |  | CC(C)(C)O [2-methylpropan-2-ol]
 | 100 ± 2 kPa | O [water]
